Values after ≈ are worked out from the molar mass of the structure shown. “Also recorded” adds a separate entry of the source. Where two headings read alike, the source gives them in different places.
Assays:
Assay type in all cases: cell-based
[1] = test system: Atopobium vaginae ATCC BAA 55; assay: MIC, macro dilution method for bacteria in a solid medium; details: for MIC: Fannyhessea vaginae, BAA55, 168 h, read-out: MIC value; for antibacterial activity (in words): against Atopobium vaginae
Experimental: (§1) Strains used in the study were Gardnerella vaginalis ATCC 14018, Atopobium vaginae ATCC BAA 55, Candida albicans ATCC 90028, and Candida [NT] 2001. […] To perform the assay, a pure, 48-hour strain reference culture was used, from which a bacterial suspension with a density of 1.0 McFarland in sterile saline was prepared. The suspension was plated onto Schaedler agar medium supplemented with 5% sheep blood (Becton Dickinson) and a test compound at the appropriate concentration. After incubation, the value MIC was read. Colony growth on the plate indicated no activity of the test compound at tested concentration. As the MIC value, the last lowest concentration as taken, at which there was no microbial growth. [table]

[2] = test system: Gardnerella vaginalis ATCC 14018; assay: as above; details: for MIC: Gardnerella vaginalis, ATCC14018, 72 h, read-out: MIC value; for antibacterial activity (in words): against Gardnerella vaginalis
Experimental: as §1

[3] = test system: Candida glabrata ATCC 2001; assay: MIC, macro dilution method for yeast-like fungi in a liquid medium; details: for MIC: Nakaseomyces glabratus, read-out: MIC value
Experimental: (§2) Strains used in the study were Gardnerella vaginalis ATCC 14018, Atopobium vaginae ATCC BAA 55, Candida albicans ATCC 90028, and Candida [NT] 2001. […] Liquid medium RPMI 1640 (Sigma-Aldrich) was used for fungi of the species Candida albicans ATCC 90028, and Candida [NT] 2001, in which 15 serial dilution were prepared in a range 500 μg/mL-0.03 μg/mL. From a pure 24-hour culture on Sabouraud solid medium, a fungal suspension having density of 0.5 McFarland in sterile saline. Next, the suspension was diluted, and was introduced into the RPMI 1640 medium yielding final concentrations of fungi 10^5 CFU/mL. Incubation was carried out for 24 hours in aerobic conditions in 37° C. Colony growth on the plate indicated no activity of the test compound at tested concentration. As the MIC value, the last lowest concentration as taken, at which there was no microbial growth

[4] = test system: Candida albicans ATCC 90028; assay: as above; details: for MIC: read-out: MIC value
Experimental: as §2

[5] = test system: Atopobium vaginae ATCC BAA 55; assay: Synergistic action at 2-fold lower concentrations than MIC, solid medium; details: for Synergy with Metronidazole / Synergy with Nystatin: Atopobium vaginae ATCC BAA 55, Furazidin 0.03 mg/L, Nitrofurantoin 0.98 mg/L, Nifuratel 1.95 mg/L; for Synergy with Metronidazole: Metronidazole 0.5 mg/L; for Synergy with Nystatin: Nystatin 250 mg/L; for synergistic effects with metronidazole (in words): against Atopobium vaginae
Experimental: (§3) To perform the assay, a pure, 48-hour strain reference culture was used, from which a bacterial suspension with a density of 1.0 McFarland in sterile saline was prepared. The suspension was plated onto Schaedler agar medium supplemented with 5% sheep blood (Becton Dickinson) and a test compound at the appropriate concentration. After incubation, the value MIC was read. Colony growth on the plate indicated no activity of the test compound at tested concentration. As the MIC value, the last lowest concentration as taken, at which there was no microbial growth. […] Lack of bacterial growth on the plate was interpreted as a synergic action. [table]

[6] = test system: Gardnerella vaginalis ATCC 14018; assay: as above; details: for Synergy with Metronidazole / Synergy with Nystatin: Gardnerella vaginalis ATCC 14018, Furazidin 0.25 mg/L, Nitrofurantoin 0.5 mg/L, Nifuratel 0.98 mg/L; for Synergy with Metronidazole: Metronidazole 125 mg/L; for Synergy with Nystatin: Nystatin 250 mg/L; for synergistic effects with metronidazole (in words): against Gardnerella vaginalis
Experimental: as §3

[7] = test system: Candida glabrata ATCC 2001; assay: Synergistic action at 2-fold lower concentrations than MIC, liquid medium; details: for Synergy with Metronidazole / Synergy with Nystatin: Candida glabrata ATCC 2001, each nitrofuran 250 mg/L; for Synergy with Metronidazole: Metronidazole 125 mg/L; for Synergy with Nystatin: Nystatin 0.98 mg/L
Experimental: (§4) Liquid medium RPMI 1640 (Sigma-Aldrich) was used for fungi of the species Candida albicans ATCC 90028, and Candida [NT] 2001, in which 15 serial dilution were prepared in a range 500 μg/mL-0.03 μg/mL. From a pure 24-hour culture on Sabouraud solid medium, a fungal suspension having density of 0.5 McFarland in sterile saline. Next, the suspension was diluted, and was introduced into the RPMI 1640 medium yielding final concentrations of fungi 10^5 CFU/mL. Incubation was carried out for 24 hours in aerobic conditions in 37° C. Colony growth on the plate indicated no activity of the test compound at tested concentration. As the MIC value, the last lowest concentration as taken, at which there was no microbial growth […] Lack of fungal growth on the plate was interpreted as a synergic action.

[8] = test system: Candida albicans ATCC 90028; assay: as above; details: for Synergy with Metronidazole / Synergy with Nystatin: Candida albicans ATCC 90028, each nitrofuran 250 mg/L; for Synergy with Metronidazole: Metronidazole 250 mg/L; for Synergy with Nystatin: Nystatin 0.98 mg/L
Experimental: as §4

[9] = Atopobium vaginae ATCC BAA 55, Schaedler agar, anaerobic, 37° C., 7 days
[10] = Gardnerella vaginalis ATCC 14018, Schaedler agar, microaerophilic, 37° C., 72 hours
[11] = ATCC2001, Candida glabrata ATCC 2001, RPMI 1640, 24 hours, aerobic, 37° C.
[12] = ATCC90028, Candida albicans ATCC 90028, RPMI 1640, 24 hours, aerobic, 37° C.
[13] = Candida glabrata ATCC 2001, RPMI 1640, 24 hours, aerobic, 37° C.
[14] = Candida albicans ATCC 90028, RPMI 1640, 24 hours, aerobic, 37° C.

| MIC value [1, 9] | MIC [1, 9] | MIC value [2, 10] | MIC [2, 10] | MIC [3, 11] | MIC [4, 12] | SMILES | antibacterial activity (in words) [1] | antibacterial activity (in words) [2] | Synergy with Metronidazole [5] | Synergy with Nystatin [5] | synergistic effects with metronidazole (in words) [5] | Synergy with Metronidazole [6] | Synergy with Nystatin [6] | synergistic effects with metronidazole (in words) [6] | Synergy with Metronidazole [7] | Synergy with Nystatin [7] | Synergy with Metronidazole [8] | Synergy with Nystatin [8] | MIC value [3, 13] | MIC value [4, 14] | further results |
| --- | --- | --- | --- | --- | --- | --- | --- | --- | --- | --- | --- | --- | --- | --- | --- | --- | --- | --- | --- | --- | --- |
| <0.03 µg/mL | < 0.03 µg/mL | 1.95 µg/mL (≈ 4.59 µM) | < 1.95 µg/mL |  |  | CCC[C@@H]1C[C@@H](C(=O)N[C@@H]([C@H]2O[C@H](SC)[C@H](O)[C@@H](O)[C@H]2O)[C@H](C)Cl)N(C)C1 [Clindamycin] |  |  |  |  |  |  |  |  |  |  |  |  |  |  |  |
| <0.03 µg/mL | < 0.03 µg/mL | 0.49 µg/mL (≈ 1.85 µM) | < 0.49 µg/mL | 500 µg/mL (≈ 1890 µM) | 500 µg/mL (≈ 1890 µM) | O=C1CN(/N=C/C=C/c2ccc([N+](=O)[O-])o2)C(=O)N1 [Furazidin] | highest antibacterial activity in the group of nitrofuran derivatives | highest antibacterial activity in the group of nitrofuran derivatives | + | + | synergy; also recorded: synergistic effects | + | + | synergy; also recorded: synergistic effects | + | + | + | − |  |  | synergistic effects with nystatin (in words) ([5]; on Atopobium vaginae): synergistic effect; synergistic effects with nystatin (in words) ([6]; on Gardnerella vaginalis): synergistic effect; synergistic effects with metronidazole (in words) ([7]; against Candida glabrata): synergy; synergistic effects with nystatin (in words) ([7]; against Candida glabrata): synergistic effects; synergistic effects with metronidazole (in words) ([8]; against Candida albicans): synergy |
|  | 0.98 µg/mL (≈ 5.73 µM) |  | 250 µg/mL (≈ 1460 µM) | 250 µg/mL (≈ 1460 µM) | 500 µg/mL (≈ 2920 µM) | Cc1ncc([N+](=O)[O-])n1CCO [Metronidazol, Metronidazole] | antibacterial activity | antibacterial activity |  |  |  |  |  |  |  |  |  |  |  |  |  |
|  |  |  |  |  |  | CSCC1CN(/N=C/c2ccc([N+](=O)[O-])o2)C(=O)O1 (stereo not shown) [Nifuratel] | antibacterial activity | antibacterial activity | − | + |  | − | + |  | + | − | + | − |  |  | MIC [1]: 3.9 µg/mL (≈ 13.7 µM); MIC [2]: 1.95 µg/mL (≈ 6.84 µM); MIC ([3]; ATCC2001, 24 h): 500 µg/mL (≈ 1750 µM); MIC ([4]; Candida albicans, ATCC90028, 24 h): > 500 µg/mL |
| 1.95 µg/mL (≈ 8.19 µM) |  | 0.98 µg/mL (≈ 4.11 µM) |  |  |  | O=C1CN(/N=C/c2ccc([N+](=O)[O-])o2)C(=O)N1 [Nitrofurantion, Nitrofurantoin] | antibacterial activity | antibacterial activity | + | + | synergistic effects | + | + | synergistic effects | + | − | + | − | 500 µg/mL (≈ 2100 µM) | 500 µg/mL (≈ 2100 µM) |  |

| SMILES | MIC value [1, 9] | MIC [1, 9] | MIC value [2, 10] | MIC [2, 10] | MIC [3, 11] | MIC [4, 12] | antibacterial activity (in words) [1] | antibacterial activity (in words) [2] | Synergy with Metronidazole [5] | Synergy with Nystatin [5] | synergistic effects with metronidazole (in words) [5] | Synergy with Metronidazole [6] | Synergy with Nystatin [6] | synergistic effects with metronidazole (in words) [6] | Synergy with Metronidazole [7] | Synergy with Nystatin [7] | Synergy with Metronidazole [8] | Synergy with Nystatin [8] | MIC value [3, 13] | MIC value [4, 14] | further results |
| --- | --- | --- | --- | --- | --- | --- | --- | --- | --- | --- | --- | --- | --- | --- | --- | --- | --- | --- | --- | --- | --- |
| C[C@@H]1[C@H](O)[C@@H](C)/C=C/C=C/CC/C=C/C=C/C=C/C=C/C(O[C@H]2O[C@H](C)[C@@H](O)[C@H](N)[C@@H]2O)CC2O[C@](O)(CC(O)C(O)CCC(O)CC(O)CC(O)CC(=O)O[C@H]1C)CC(O)C2C(=O)O (stereo partly shown) [Nystatin] | 500 µg/mL (≈ 540 µM) |  | 500 µg/mL (≈ 540 µM) |  |  |  |  |  |  |  |  |  |  |  |  |  |  |  | 1.98 µg/mL (≈ 2.14 µM) | 1.98 µg/mL (≈ 2.14 µM) |  |

From patent US12343332B2, “Treatment of a bacterial vaginal infection” (Adamed Pharma S.A., priority 2017, dated 2025)
